In patent US12357608B2, “Methods and compositions utilizing RRx-001 combination therapy for radioprotection” (priority 2018, dated 2025):

Key:
[1] = test system: human normal bone marrow mesenchymal stem cells (hMSC); test: Western blotting of antioxidant response element (ARE) proteins in irradiated hMSC; type: cell-based; conditions: 5 mM RRx-001 16 hours
Method: Antioxidant response element (ARE) genes such as heme oxygenase 1 (HO-1), NAD(P)H Dehydrogenase [Quinone] 1 (NQO-1) and Superoxide Dismutase (SOD) are involved in the detoxification and elimination of reactive oxidants.
Expression of ARE proteins was assayed in hMSC, macrophages, and monocytes following in vitro irradiation of the cells, which were pretreated with RRx-001 or vehicle. Protein expression was assayed by Western blotting and protein quantification.
hMSC were treated for 16 hours with […] RRx-001 or the vehicle control (0.05% DMSO), irradiated at 10 Gy or sham-irradiated and the protein collected 8 or 24 hours post-sham or irradiation. Human monocytic leukemic THP-1 and U937 cells were differentiated into macrophages with 50 nM Phorbol 12-myristate 13-acetate (PMA) for 24 hours before treatment. Differentiated and non-differentiated cells were treated with […] RRx-001 or 0.05% DMSO (vehicle control) for 16 hours prior to radiation. The cells were irradiated at 5 Gy or sham-irradiated and collected 4-8 hours later for both analysis. For each experiment, duplicates of each sample were run.

[2] = test system: superoxide dismutase; test: Superoxide dismutase activity assay in hMSC; type: cell-based, human; conditions: 5 mM RRx-001 16 hours; 8 hours after 10 Gy irradiation
Method: The activity of superoxide dismutase activity was also assayed in hMSC. hMSC were treated for 16 hours with […] RRx-001 or vehicle, irradiated at 10 Gy or sham-irradiated and whole cell homogenate collected according to the manufacture's protocol. The assay measures the activity of all three forms of SOD. The amount of SOD activity (U/mL) was normalized to protein levels.

[3] = test system: CD2F1 male mice; test: Survival following lethal total body irradiation (TBI); type: in vivo
Method: In this Example, the effects of systemic administration of RRx-001 on survival in response to a lethal dose of radiation was assayed in mice. CD2F1 male mice 9.5-11 weeks old were administered a single dose of RRx-001 by intraperitoneal (IP) injection 24 hours prior to a lethal radiation dose. 24 mice received 10 mg/kg RRx-001 (formulated in 5% DMSO in sterile H2O) and 24 mice received the vehicle control (5% DMSO) in sterile H2O only).
The mice were subjected to total body irradiation (TBI) with 9.35 Gy (LD70/30) at 0.6 Gy/min using High-level Cobalt-60. Unanesthetized mice were placed in well-ventilated Plexiglas restrainers and irradiated bilaterally. Sham-irradiated mice were also placed in identical Plexiglas restrainers and kept in a room shielded from irradiation at the same time. In each experiment, the dose to the abdominal cores of the animals was delivered at a dose rate of approximately 0.6 Gy/min. Dosimetry was performed prior to the irradiation of the animals using the highly accurate alanine/electron spin resonance (ESR) dosimetry system (American Society for Testing and Materials, Standard E 1607) to measure dose rates (to water) in the cores of acrylic mouse phantoms, which were located in the compartments of the exposure rack. A calibration curve based on standard alanine calibration dosimeters provided by the National Institute of Standards and Technology (NIST, Gaithersburg, MD) was used to measure the doses. The accuracy of the dose rate calibrations has been verified several times using the services of the National Physics Laboratory (UK National Standards Laboratory, London, UK) and the M.D. Anderson Cancer Center (Houston, TX). The corrections applied to the measured dose rates in the phantoms were for a small difference in the Co-60 energy between the mass energy-absorption coefficients for soft tissue and water, as well as source decay. The radiation field was uniform within ±1.2%.
Mice were monitored at least twice a day for 30 days post-irradiation. During the critical period (days 10-20), mice were monitored at least three times a day with no more than 10 hours between observations. Mice displaying any signs of discomfort received food in their cage as a wet mash. Mice displaying overt dyspnea, weight loss, lethargy, or other markers of moribundity and appearing to be in distress were humanely euthanized in a separate room using carbon dioxide gas followed by cervical dislocation after breathing stopped as a confirmatory method of euthanasia. This experiment was repeated for a total of n=24 mice per group.
Survival curves were estimated using the Kaplan-Meier method and were compared using a two-sided log-rank test at the 0.05 significance level. P-values were considered statistically significant if less than 0.05.

[4] = test system: Nrf2; conditions: tumor cells exposed to RRx-001; Ning et al., Oncotarget 2015; cited from earlier work

O=C(CBr)N1CC([N+](=O)[O-])([N+](=O)[O-])C1 [RRx-001, 2-bromo-1-(3,3-dinitroazetidin-1-yl)ethan-1-one]
SOD1 and 2 expression ([1]; 10 Gy irradiation, 8 hours): slight increase | HO-1 expression increase ([1]; 24 hours post-sham or irradiation): 2-3.5 fold | NQO-1 expression ([1]; all groups): slightly reduced | HO-1 expression increase ([1]; sham and 10 Gy irradiated groups, 8 hours post-sham or irradiation): 22-26 fold | Superoxide Dismutase Activity [2]: did not increase | increase in mean survival time compared to the vehicle control ([3]; 10 mg/kg 24 hours prior to lethal TBI): 7 days | increase in survival ([3]; 10 mg/kg 24 hours prior to lethal TBI, vs vehicle control): 33.4% | survival times, means±standard errors ([3]; 10 mg/kg IP 24 hours prior to 9.35 Gy TBI, 30-day observation, N=24/group): 27.2 ± 1.1 days | reduction in the 30-day death risk ([3]; one dose 10 mg/kg IP 24 hours prior to 9.35 Gy (LD70/30) TBI, vs vehicle control irradiated mice): ~33.4% | nuclear presence of transcription factor Nrf2 [4]: increased nuclear presence
